Which solubility (mole fraction) (in 2-butanone, 278.15 K) does the source give for `C=CC(=O)N1CCC[C@@H](n2nc(-c3ccc(Oc4ccccc4)cc3)c3c(N)ncnc32)C1` here?
Its solubility (mole fraction) is 0.00549.

And the solubility (mole fraction) (in 2-butanone, 283.15 K)?
The solubility (mole fraction) was 0.00628.

What about the solubility (mole fraction) (in 2-butanone, 288.15 K) of the same molecule?
The solubility (mole fraction) was 0.00726.

And the solubility (mole fraction) (in 2-butanone, 293.15 K)?
The solubility (mole fraction) was 0.00855.

What about the solubility (mole fraction) (in 2-butanone, 298.15 K) of the same molecule?
Its solubility (mole fraction) is 0.00988.

What about the solubility (mole fraction) (in 2-butanone, 303.15 K) of the same molecule?
The solubility (mole fraction) was 0.0114.

What about the solubility (mole fraction) (in 2-butanone, 308.15 K) of the same molecule?
Its solubility (mole fraction) is 0.0132.

What about the solubility (mole fraction) (in 2-butanone, 313.15 K) of the same molecule?
The solubility (mole fraction) was 0.0155.

And the solubility (mole fraction) (in 2-butanone, 318.15 K)?
The solubility (mole fraction) was 0.0181.

And the solubility (mole fraction) (in 2-butanone, 323.15 K)?
The solubility (mole fraction) was 0.0211.

And the solubility (mole fraction) (in MTBE, 278.15 K)?
Its solubility (mole fraction) is 0.000225.

And the solubility (mole fraction) (in MTBE, 283.15 K)?
Its solubility (mole fraction) is 0.000244.

What about the solubility (mole fraction) (in MTBE, 288.15 K) of the same molecule?
The solubility (mole fraction) was 0.000277.

And the solubility (mole fraction) (in MTBE, 293.15 K)?
Its solubility (mole fraction) is 0.000305.

And the solubility (mole fraction) (in MTBE, 298.15 K)?
The solubility (mole fraction) was 0.000331.

What about the solubility (mole fraction) (in MTBE, 303.15 K) of the same molecule?
The solubility (mole fraction) was 0.00037.

And the solubility (mole fraction) (in MTBE, 308.15 K)?
Its solubility (mole fraction) is 0.000404.

What about the solubility (mole fraction) (in MTBE, 313.15 K) of the same molecule?
The solubility (mole fraction) was 0.000454.

What about the solubility (mole fraction) (in MTBE, 318.15 K) of the same molecule?
Its solubility (mole fraction) is 0.000497.

And the solubility (mole fraction) (in MTBE, 323.15 K)?
The solubility (mole fraction) was 0.00056.

What about the solubility (mole fraction) (in acetone, 278.15 K) of the same molecule?
Its solubility (mole fraction) is 0.00362.

And the solubility (mole fraction) (in acetone, 283.15 K)?
Its solubility (mole fraction) is 0.00417.

And the solubility (mole fraction) (in acetone, 288.15 K)?
Its solubility (mole fraction) is 0.00487.

And the solubility (mole fraction) (in acetone, 293.15 K)?
Its solubility (mole fraction) is 0.00573.

What about the solubility (mole fraction) (in acetone, 298.15 K) of the same molecule?
Its solubility (mole fraction) is 0.00673.

And the solubility (mole fraction) (in acetone, 303.15 K)?
The solubility (mole fraction) was 0.00794.

And the solubility (mole fraction) (in acetone, 308.15 K)?
The solubility (mole fraction) was 0.00921.

What about the solubility (mole fraction) (in acetone, 313.15 K) of the same molecule?
Its solubility (mole fraction) is 0.0108.

What about the solubility (mole fraction) (in acetone, 318.15 K) of the same molecule?
Its solubility (mole fraction) is 0.0125.

What about the solubility (mole fraction) (in acetone, 323.15 K) of the same molecule?
Its solubility (mole fraction) is 0.0144.

What about the solubility (mole fraction) (in acetonitrile, 278.15 K) of the same molecule?
Its solubility (mole fraction) is 0.000672.

And the solubility (mole fraction) (in acetonitrile, 283.15 K)?
The solubility (mole fraction) was 0.000819.

What about the solubility (mole fraction) (in acetonitrile, 288.15 K) of the same molecule?
The solubility (mole fraction) was 0.000962.

What about the solubility (mole fraction) (in acetonitrile, 293.15 K) of the same molecule?
Its solubility (mole fraction) is 0.00122.

And the solubility (mole fraction) (in acetonitrile, 298.15 K)?
Its solubility (mole fraction) is 0.00143.

And the solubility (mole fraction) (in acetonitrile, 303.15 K)?
Its solubility (mole fraction) is 0.00174.

And the solubility (mole fraction) (in acetonitrile, 308.15 K)?
Its solubility (mole fraction) is 0.0021.

What about the solubility (mole fraction) (in acetonitrile, 313.15 K) of the same molecule?
Its solubility (mole fraction) is 0.00256.

What about the solubility (mole fraction) (in acetonitrile, 318.15 K) of the same molecule?
The solubility (mole fraction) was 0.00314.

What about the solubility (mole fraction) (in acetonitrile, 323.15 K) of the same molecule?
Its solubility (mole fraction) is 0.00367.

And the solubility (mole fraction) (in ethyl acetate, 278.15 K)?
The solubility (mole fraction) was 0.00312.

What about the solubility (mole fraction) (in ethyl acetate, 283.15 K) of the same molecule?
The solubility (mole fraction) was 0.00357.

What about the solubility (mole fraction) (in ethyl acetate, 288.15 K) of the same molecule?
The solubility (mole fraction) was 0.00403.

What about the solubility (mole fraction) (in ethyl acetate, 293.15 K) of the same molecule?
Its solubility (mole fraction) is 0.00475.

And the solubility (mole fraction) (in ethyl acetate, 298.15 K)?
The solubility (mole fraction) was 0.00548.

And the solubility (mole fraction) (in ethyl acetate, 303.15 K)?
Its solubility (mole fraction) is 0.00618.

What about the solubility (mole fraction) (in ethyl acetate, 308.15 K) of the same molecule?
The solubility (mole fraction) was 0.00722.

And the solubility (mole fraction) (in ethyl acetate, 313.15 K)?
The solubility (mole fraction) was 0.0083.

What about the solubility (mole fraction) (in ethyl acetate, 318.15 K) of the same molecule?
Its solubility (mole fraction) is 0.00952.

What about the solubility (mole fraction) (in ethyl acetate, 323.15 K) of the same molecule?
Its solubility (mole fraction) is 0.0107.

What about the solubility (mole fraction) (in isopropanol, 278.15 K) of the same molecule?
The solubility (mole fraction) was 0.000409.

And the solubility (mole fraction) (in isopropanol, 283.15 K)?
Its solubility (mole fraction) is 0.000547.

And the solubility (mole fraction) (in isopropanol, 288.15 K)?
Its solubility (mole fraction) is 0.000734.

What about the solubility (mole fraction) (in isopropanol, 293.15 K) of the same molecule?
Its solubility (mole fraction) is 0.000947.

What about the solubility (mole fraction) (in isopropanol, 298.15 K) of the same molecule?
The solubility (mole fraction) was 0.00123.

And the solubility (mole fraction) (in isopropanol, 303.15 K)?
The solubility (mole fraction) was 0.00165.

And the solubility (mole fraction) (in isopropanol, 308.15 K)?
The solubility (mole fraction) was 0.00217.

And the solubility (mole fraction) (in isopropanol, 313.15 K)?
Its solubility (mole fraction) is 0.00278.

What about the solubility (mole fraction) (in isopropanol, 318.15 K) of the same molecule?
The solubility (mole fraction) was 0.00363.

What about the solubility (mole fraction) (in isopropanol, 323.15 K) of the same molecule?
Its solubility (mole fraction) is 0.00455.

What about the solubility (mole fraction) (in n-butanol, 278.15 K) of the same molecule?
The solubility (mole fraction) was 0.00127.

And the solubility (mole fraction) (in n-butanol, 283.15 K)?
The solubility (mole fraction) was 0.00163.

What about the solubility (mole fraction) (in n-butanol, 288.15 K) of the same molecule?
Its solubility (mole fraction) is 0.00206.

What about the solubility (mole fraction) (in n-butanol, 293.15 K) of the same molecule?
The solubility (mole fraction) was 0.00261.

What about the solubility (mole fraction) (in n-butanol, 298.15 K) of the same molecule?
Its solubility (mole fraction) is 0.00331.

And the solubility (mole fraction) (in n-butanol, 303.15 K)?
Its solubility (mole fraction) is 0.00423.

And the solubility (mole fraction) (in n-butanol, 308.15 K)?
Its solubility (mole fraction) is 0.0054.

What about the solubility (mole fraction) (in n-butanol, 313.15 K) of the same molecule?
Its solubility (mole fraction) is 0.00694.

What about the solubility (mole fraction) (in n-butanol, 318.15 K) of the same molecule?
The solubility (mole fraction) was 0.00894.

What about the solubility (mole fraction) (in n-butanol, 323.15 K) of the same molecule?
Its solubility (mole fraction) is 0.0115.
